Measured values from US11135234B2, “Effective aminoglycoside antibiotic for multidrug-resistant bacteria” (MICROBIAL CHEMISTRY RESEARCH FOUNDATION, priority 2015, dated 2021).
≈ marks a conversion by molar mass, not a printed value.

How the values were obtained:
S. marcescens TH-0447 = experiment: MIC, agar plate dilution method, S. marcescens TH-0447; format: cell-based, Serratia marcescens; conditions: Serratia marcescens, TH0447, S. marcescens TH-0447, AMK-resistant, read-out: minimal inhibitory concentration (MIC)
How it was run: (§1)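 Strains were tested on agar plates containing diluted compound, and the MIC (μg/mL) was recorded according to the Japan Society of Chemotherapy protocol.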

P. aeruginosa PAO1 = experiment: MIC, agar plate dilution method, P. aeruginosa PAO1; format: cell-based, Pseudomonas aeruginosa; conditions: for MIC: Pseudomonas aeruginosa, PAO1, P. aeruginosa PAO1, Sensitive bacterium, read-out: minimal inhibitory concentration (MIC)
How it was run: as §1

P. aeruginosa MSC17707 = experiment: MIC, agar plate dilution method, P. aeruginosa MSC17707; format: cell-based, Pseudomonas aeruginosa; conditions: Pseudomonas aeruginosa, MSC17707, P. aeruginosa MSC17707, AMK-resistant, read-out: minimal inhibitory concentration (MIC)
How it was run: as §1

E. faecium ATCC19434 = experiment: MIC, agar plate dilution method, E. faecium ATCC19434; format: cell-based, Enterococcus faecium; conditions: Enterococcus faecium, ATCC19434, E. faecium ATCC19434, read-out: minimal inhibitory concentration (MIC)
How it was run: as §1

S. marcescens GN6944 = experiment: MIC, agar plate dilution method, S. marcescens GN6944; format: cell-based, Serratia marcescens; conditions: Serratia marcescens, S. marcescens GN6944, GM-resistant, read-out: minimal inhibitory concentration (MIC)
How it was run: as §1

[1] = system: A. baumannii ATCC BAA-1710; experiment: MIC, agar plate dilution method, A. baumannii ATCC BAA-1710; format: cell-based, Acinetobacter baumannii; conditions: Acinetobacter baumannii, ATCCBAA1710, A. baumannii ATCC BAA-1710, MDRA, read-out: minimal inhibitory concentration (MIC)
How it was run: as §1

S. aureus RN4220/pMS520 = experiment: MIC, agar plate dilution method, S. aureus RN4220/pMS520; format: cell-based, Staphylococcus aureus; conditions: Staphylococcus aureus, MRSA, read-out: minimal inhibitory concentration (MIC), S. aureus RN4220/pMS520, MRSA
How it was run: as §1

[2] = system: K. pneumoniae ATCC BAA-1705; experiment: MIC, agar plate dilution method, K. pneumoniae ATCC BAA-1705; format: cell-based, Klebsiella pneumoniae; conditions: for MIC: Klebsiella pneumoniae, ATCCBAA1705, K. pneumoniae ATCC BAA-1705, KPC-producing strain, read-out: minimal inhibitory concentration (MIC)
How it was run: as §1

P. aeruginosa PAO1/GN315 = experiment: MIC, agar plate dilution method, P. aeruginosa PAO1/GN315; format: cell-based, Pseudomonas aeruginosa; conditions: Pseudomonas aeruginosa, read-out: minimal inhibitory concentration (MIC), P. aeruginosa PAO1/GN315, AMK-resistant
How it was run: as §1

S. aureus RN4220 = experiment: MIC, agar plate dilution method, S. aureus RN4220; format: cell-based, Staphylococcus aureus; conditions: Staphylococcus aureus, RN4220, S. aureus RN4220, Sensitive bacterium, read-out: minimal inhibitory concentration (MIC)
How it was run: as §1

E. coli JM109/pMW218 = experiment: MIC, agar plate dilution method, E. coli JM109/pMW218; format: cell-based, Escherichia coli; conditions: Escherichia coli, JM109/PMW218, E. coli JM109/pMW218, Sensitive bacterium, read-out: minimal inhibitory concentration (MIC)
How it was run: as §1

P. aeruginosa MSC01035 = experiment: MIC, agar plate dilution method, P. aeruginosa MSC01035; format: cell-based, Pseudomonas aeruginosa; conditions: Pseudomonas aeruginosa, P. aeruginosa MSC01035, ABK-resistant, read-out: minimal inhibitory concentration (MIC)
How it was run: as §1

S. aureus MF490 = experiment: MIC, agar plate dilution method, S. aureus MF490; format: cell-based, Staphylococcus aureus; conditions: Staphylococcus aureus, MRSA, read-out: minimal inhibitory concentration (MIC)
How it was run: as §1

[3] = system: K. pneumoniae ATCC BAA-2146; experiment: MIC, agar plate dilution method, K. pneumoniae ATCC BAA-2146; format: cell-based, Klebsiella pneumoniae; conditions: Klebsiella pneumoniae, ATCCBAA2146, K. pneumoniae ATCC BAA-2146, NDM-producing strain, read-out: minimal inhibitory concentration (MIC)
How it was run: as §1

Structure (SMILES) | MIC (S. marcescens TH-0447) | minimal inhibitory concentration (MIC) (P. aeruginosa PAO1; P. aeruginosa PAO1, Sensitive bacterium) | MIC (P. aeruginosa MSC17707) | MIC (E. faecium ATCC19434) | MIC (S. marcescens GN6944) | MIC [1] | MIC (S. aureus RN4220/pMS520) | minimal inhibitory concentration (MIC) ([2]; K. pneumoniae ATCC BAA-1705, KPC-producing strain) | MIC (P. aeruginosa PAO1/GN315) | MIC (S. aureus RN4220) | MIC (E. coli JM109/pMW218) | MIC (P. aeruginosa MSC01035) | MIC (S. aureus MF490) | MIC [3] | MIC (P. aeruginosa PAO1) | MIC [2]
CNC1C(O[C@H]2OC(CO)[C@@H](NC(=O)[C@H](C)N)[C@H](O)C2O)O[C@H]2CC(N)[C@@H](O[C@@H]3C(N)C[C@@H](N)C(O)[C@H]3O)OC2C1O (stereo partly drawn) [Compound V1-k, 4″-N-(L-alanyl)-5-epiapramycin] | 16 mg/L (≈ 26.2 µM) | 4 mg/L (≈ 6.55 µM) | 4 mg/L (≈ 6.55 µM) | 16 mg/L (≈ 26.2 µM) | 8 mg/L (≈ 13.1 µM) | 8 mg/L (≈ 13.1 µM) | 4 mg/L (≈ 6.55 µM) | 1 mg/L (≈ 1.64 µM) | 4 mg/L (≈ 6.55 µM) | 4 mg/L (≈ 6.55 µM) | 1 mg/L (≈ 1.64 µM) | 8 mg/L (≈ 13.1 µM) | 8 mg/L (≈ 13.1 µM) | 1 mg/L (≈ 1.64 µM) |  | 
CNC1C(O[C@H]2OC(CO)[C@@H](NCCN)[C@H](O)C2O)O[C@H]2CC(N)[C@@H](O[C@@H]3C(N)C[C@@H](N)C[C@H]3O)OC2C1O (stereo partly drawn) [Compound S1-m, 6-deoxy-4″-N-(2-aminoethyl)-5-epiapramycin] | 4 mg/L (≈ 7.06 µM) |  | 8 mg/L (≈ 14.1 µM) | 16 mg/L (≈ 28.2 µM) | 8 mg/L (≈ 14.1 µM) | 4 mg/L (≈ 7.06 µM) | 2 mg/L (≈ 3.53 µM) |  | 8 mg/L (≈ 14.1 µM) | 2 mg/L (≈ 3.53 µM) | 1 mg/L (≈ 1.76 µM) | 8 mg/L (≈ 14.1 µM) | 8 mg/L (≈ 14.1 µM) | 1 mg/L (≈ 1.76 µM) | 4 mg/L (≈ 7.06 µM) | 2 mg/L (≈ 3.53 µM)
CNC1C(O[C@H]2OC(CO)[C@@H](NC(=O)[C@@H](C)N)[C@H](O)C2O)O[C@H]2CC(N)[C@@H](O[C@@H]3C(N)C[C@@H](N)C(O)[C@H]3O)OC2C1O (stereo partly drawn) [Compound V1-d, 4″-N-(D-alanyl)apramycin] | 16 mg/L (≈ 26.2 µM) |  | 8 mg/L (≈ 13.1 µM) | 64 mg/L (≈ 105 µM) | 8 mg/L (≈ 13.1 µM) | 8 mg/L (≈ 13.1 µM) | 4 mg/L (≈ 6.55 µM) |  | 8 mg/L (≈ 13.1 µM) | 4 mg/L (≈ 6.55 µM) | 2 mg/L (≈ 3.28 µM) | 8 mg/L (≈ 13.1 µM) | 16 mg/L (≈ 26.2 µM) | 2 mg/L (≈ 3.28 µM) | 4 mg/L (≈ 6.55 µM) | 2 mg/L (≈ 3.28 µM)
CNC1C(O[C@H]2OC(CO)[C@@H](NC3CN(C)C3)[C@H](O)C2O)O[C@H]2CC(N)[C@@H](O[C@@H]3C(N)C[C@@H](N)C(O)[C@H]3O)OC2C1O (stereo partly drawn) [Compound A4-i, 4″-N-(1-methylazetidin-3-yl)apramycin] | 16 mg/L (≈ 26.3 µM) |  | 16 mg/L (≈ 26.3 µM) | 32 mg/L (≈ 52.6 µM) | 8 mg/L (≈ 13.1 µM) | 16 mg/L (≈ 26.3 µM) | 4 mg/L (≈ 6.57 µM) |  | 16 mg/L (≈ 26.3 µM) | 4 mg/L (≈ 6.57 µM) | 1 mg/L (≈ 1.64 µM) | 16 mg/L (≈ 26.3 µM) | 16 mg/L (≈ 26.3 µM) | 2 mg/L (≈ 3.29 µM) | 8 mg/L (≈ 13.1 µM) | 2 mg/L (≈ 3.29 µM)
CNC1C(O[C@H]2OC(CO)[C@@H](NC(=O)[C@@H](O)CN)[C@H](O)C2O)O[C@H]2CC(N)[C@@H](O[C@@H]3C(N)C[C@@H](N)C(O)[C@H]3O)OC2C1O (stereo partly drawn) [Compound V1-h, 4″-N-(L-isoseryl)apramycin] | 16 mg/L (≈ 25.5 µM) |  | 4 mg/L (≈ 6.38 µM) | 32 mg/L (≈ 51.1 µM) | 8 mg/L (≈ 12.8 µM) | 8 mg/L (≈ 12.8 µM) | 4 mg/L (≈ 6.38 µM) |  | 8 mg/L (≈ 12.8 µM) | 4 mg/L (≈ 6.38 µM) | 2 mg/L (≈ 3.19 µM) | 4 mg/L (≈ 6.38 µM) | 8 mg/L (≈ 12.8 µM) | 2 mg/L (≈ 3.19 µM) | 16 mg/L (≈ 25.5 µM) | 2 mg/L (≈ 3.19 µM)
CNC1C(O[C@H]2OC(C)[C@@H](N)[C@H](O)C2O)O[C@H]2CC(N)[C@@H](O[C@H]3CC[C@H](N)CC3N)OC2C1O (stereo partly drawn) [Compound R6, 5,6,6″-trideoxyapramycin] | 8 mg/L (≈ 16.3 µM) |  | 16 mg/L (≈ 32.5 µM) | 16 mg/L (≈ 32.5 µM) | 4 mg/L (≈ 8.14 µM) | 8 mg/L (≈ 16.3 µM) | 2 mg/L (≈ 4.07 µM) |  | 8 mg/L (≈ 16.3 µM) | 2 mg/L (≈ 4.07 µM) | 1 mg/L (≈ 2.03 µM) | 16 mg/L (≈ 32.5 µM) | 8 mg/L (≈ 16.3 µM) | 1 mg/L (≈ 2.03 µM) | 8 mg/L (≈ 16.3 µM) | 2 mg/L (≈ 4.07 µM)
